{"source": "patent US10328161B2", "about": "“Luciferin derivatives from bicyclic reactants and aminothiol derivatives and methods of use thereof” (The Regents of the University of California, priority 2012, dated 2019)", "key": {"[1]": {"system": "PC3M-luc cells", "experiment": "Comparison of in situ luciferin formation and luciferin in PC3M-luc cells (intact and lysed)", "format": "cell-based", "details": "inferred from intact versus lysed PC3M-luc cells", "procedure": "(§1) A Xenogen IVIS Spectrum instrument (Caliper Life Sciences, Hopkinton, Mass.) was used for bioluminescent imaging in all cellular experiments. PC3M-luc cells (kindly provided by Chris Contag, Stanford University) were cultured in Dulbecco's Modified Eagle Medium (DMEM) containing 10% Fetal Bovine Serum (FBS). Prior to assaying, cells were passed and plated (1.3-1.5×10^4 cells/well) in black 96-well plates with clear bottoms (Becton Dickinson and Company, Franklin Lakes, N.J.). Once the cells were ca. 95% confluent, reagents were added for bioluminescent assays.\nPC3M-luc cells prepared as described above were washed with HBSS (25 mM glucose) prior to addition of HCBT and D-cysteine (0-500 μM, 1% DMSO) or luciferin (0-500 μM, 1% DMSO) in HBSS (25 mM glucose). For experiments with lysed cells, 100 μL Glo lysis buffer (Promega, Madison, Wis.) was incubated with the PC3M-luc cells for 5 min prior to addition of HCBT and D-cysteine or luciferin. The plates were immediately imaged for 2 h to determine the peak bioluminescent signal produced."}, "[2]": {"system": "PC3M-luc cells", "experiment": "Lifetime of HCBT and D-cysteine in PC3M-luc cells", "format": "cell-based", "details": "100 μM, 30 min incubation, wash, complementary reagent after 0-60 min", "procedure": "as §1\nThe medium was removed from PC3M-luc cells prepared as described above, and HCBT (100 μM, 1% DMSO) or D-cysteine (100 μM, 1% PBS) in DMEM (-FBS) was added. After a 30 min incubation, the HCBT or D-cysteine was removed, the cells were washed with DMEM (-FBS), and fresh DMEM was added. After 0, 15, 30, 45, or 60 min, the second component of luciferin, D-cysteine (100 μM final concentration, 1% PBS) or HCBT (100 μM final concentration, 1% DMSO) in HBSS (25 mM glucose) was added, and the plate was immediately imaged for 2 h to determine the peak bioluminescent signal produced."}, "[3]": {"biological_target": "T1, caspase 8 (Homo sapiens, UniProt Q14790)", "T1 construct": "purchased Sigma-Aldrich", "T1 sequence (Q14790 217-374 limits assumed, species assumed)": "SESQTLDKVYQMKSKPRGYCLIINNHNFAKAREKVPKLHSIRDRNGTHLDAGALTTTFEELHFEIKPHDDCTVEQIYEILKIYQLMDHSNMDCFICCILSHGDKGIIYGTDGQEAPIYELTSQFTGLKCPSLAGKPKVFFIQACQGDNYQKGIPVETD", "T1 sequence (Q14790 385-479 limits assumed, species assumed)": "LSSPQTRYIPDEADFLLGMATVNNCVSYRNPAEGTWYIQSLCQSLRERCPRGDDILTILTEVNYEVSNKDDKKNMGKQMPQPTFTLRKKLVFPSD", "experiment": "Selectivity assay for IETDC: caspase 8", "format": "biochemical", "procedure": "(§2) Millipore water was used to prepare all aqueous solutions. Luciferase (100 μg/mL) in 50 mM Tris buffer, pH 7.4, with 10 mM MgCl2, 0.1 mM ZnCl2, and 2 mM ATP was added to selectivity assay samples (described below) to determine the relative amount of luciferin formed during incubation. Measurements for bioluminescent assays were performed at 37° C. and were recorded using a Molecular Devices SpectraMax M2 plate reader (Sunnyvale, Calif.). Samples for bioluminescent measurements were placed in white, opaque 96-well plates, which were purchased from Corning Inc. (Corning, N.Y.). ATP was purchased from MP Biomedicals (Solon, Ohio) or Sigma-Aldrich (St. Louis, Mo.), and luciferase was purchased from Promega (Madison, Wis.). Caspase enzymes were purchased from Sigma-Aldrich (St. Louis, Mo.), and caspase inhibitors were purchased from MP Biomedicals (Solon, Ohio).\nFor determination of caspase selectivity, various caspases (3 and 8:1 unit, 9:0.001 unit) were administered to IETDC or D-cysteine (5 μM) in Tris buffer (50 mM, pH 7.4). […] After each enzyme was incubated with IETDC or D-cysteine for 60 min, 100 μL of a Tris buffer (50 mM, pH 7.4) containing luciferase (100 μg/mL), 10 mM MgCl2, 0.1 mM ZnCl2, and 2 mM ATP was added to 100 μL of the IETDC or D-cysteine solutions and the bioluminescent signal was detected."}, "[4]": {"experiment": "Exogenous H2O2 experiments in mice", "format": "in vivo", "details": "for Turn-on: PCL-1 0.5 μmol", "description": "(§3) A Xenogen IVIS Spectrum instrument (Caliper Life Sciences, Hopkinton, Mass.) was used for bioluminescent imaging in all animal experiments. Mice were anesthetized prior to injection and during imaging via inhalation of isoflurane. Phosphate Buffered Saline (PBS) was purchased from Thermo Fisher Scientific (Waltham, Mass.), and saline (0.9%) was made from sodium chloride and Millipore water. Isoflurane was purchased from Phoenix Pharmaceuticals, Inc. (St. Joseph, Mo.), and pharmaceutical grade DMSO was purchased from Sigma-Aldrich (St. Louis, Mo.). Medical grade oxygen was purchased from Praxair (Danbury, Conn.).\n(§4) FVB-luc^+ (FVB-Tg(CAG-luc,-GFP)L2G85Chco/J) mice were bred at UC Berkeley, and were single or group-housed on a 12:12 light-dark cycle at 22° C. with free access to food and water. All studies were approved and performed according to the guidelines of the Animal Care and Use Committee of the University of California, Berkeley.\nUnshaven, male FVB-luc^+ mice were anesthetized with isoflurane and injected IP with a mixture of PCL-2 and D-cysteine (0.05 μmol each, in 50 μL of 1:1 DMSO:PBS), followed immediately by an IP injection of H2O2 (0-4.5 μmol in 100 μL of PBS). Control mice were injected IP with a mixture of HCBT and D-cysteine (0.01 μmol each, in 50 μL of 1:1 DMSO:PBS) immediately prior to H2O2 (4.5 μmol in 100 μL of PBS). Following injections, mice were imaged with an IVIS Spectrum."}, "[5]": {"experiment": "Selectivity assays for dual H2O2 and caspase 8 detection in vitro", "format": "biochemical", "details": "for effect of a single inhibitor on the dual-analyte signal: catalase 1 unit or Q-VD-OPh 10 μM, with H2O2 and caspase 8; for effect of both inhibitors together on the dual-analyte signal: catalase 1 unit plus Q-VD-OPh 10 μM combined; for interference with in situ luciferin formation from HCBT and D-cysteine: catalase 1 unit, Q-VD-OPh 10 μM", "procedure": "as §2\nTo quench H2O2 immediately, catalase (1 unit) was subsequently added to some of the solutions. After 60 min, catalase (1 unit) was added to all other solutions containing H2O2 to quench any remaining H2O2. Subsequently, caspase 8 (1 unit) was added to the solutions in the presence or absence of the caspase inhibitor, Q-VD-OPh (10 μM), 15 min prior to IETDC (10 μM) or D-cysteine (5 μM) addition. Following IETDC or D-cysteine addition, the solutions were incubated for 60 min. Additionally, dithiothreitol (1 mM) was added to all solutions at the time of caspase 8 addition to maintain the reduced state of the D-cysteine. To monitor luciferin formation, 100 μL of a Tris buffer (50 mM, pH 7.4) containing luciferase (100 μg/mL), 10 mM MgCl2, 0.1 mM ZnCl2, and 2 mM ATP was added to 100 μL of the PCL-2/IETDC or HCBT/D-cysteine solutions and the bioluminescent signal was detected."}, "[6]": {"experiment": "Lipopolysaccharide inflammation model, H2O2 detection with PCL-2", "format": "in vivo, mice", "details": "apocynin 10 mg/kg IP, LPS-treated mice", "description": "as §3, §4\nUnshaven, female FVB-luc^+ mice, aged 2-5 months, were anesthetized with isoflurane and injected IP with lipopolysaccharides (LPS, 3 mg/kg in 50 μL of saline) or saline (50 μL). For studies with PCL-2 alone, mice were injected IP with either apocynin (10 mg/kg in 20 μL of DMSO) or DMSO (20 μL) 6 h after LPS injection. […]"}, "[7]": {"system": "FVB-luc^+ mice", "experiment": "Control: effect of inhibitors and antioxidants on HCBT and D-cysteine luciferin signal in mice", "format": "in vivo", "procedure": "(a) Total photon fluxes, 0-15 min post-injection, for mice (n=3) injected with apocynin (IP, 10 mg/kg in 20 μL DMSO) or vehicle (IP, 20 μL DMSO) two min prior to injections of a mixture of HCBT and D-cysteine (IP, 0.01 μmol each, in 50 μL of 1:1 DMSO:PBS). (b) Total photon fluxes, 15-45 min post-injection, for mice (n=3) injected with z-VD(OMe)-OPh (IP, 1 μmol in 20 μL DMSO) or vehicle (IP, 20 μL DMSO) 30 min prior to injections of a mixture of HCBT and D-cysteine (IP, 0.01 μmol each, in 50 μL of 1:1 DMSO:PBS). Error bars are ±SEM.\nFIG. 18 depicts bioluminescent signals from HCBT and D-cysteine with ascorbic acid in FVB-luc^+ mice. Total photon fluxes, 30-60 min post-injection, for mice (n=3-4) injected with ascorbic acid (IP, 200 mg/kg in 30 μL saline) or vehicle (IP, 30 μL saline) 4.5 h prior to injections of a mixture of HCBT and D-cysteine (IP, 0.01 μmol each, in 50 μL of 1:1 DMSO:PBS). Error bars are ±SEM."}, "[8]": {"system": "H2O2 and caspase 8", "experiment": "Lipopolysaccharide inflammation model, dual detection with PCL-2 and IETDC", "format": "in vivo", "details": "ascorbic acid 200 mg/kg and z-VD-OPh 1 μmol used together, LPS-treated mice", "description": "as §3, §4\nFor studies with PCL-2 and IETDC, mice were injected IP with ascorbic acid (200 mg/kg in 30 μL of saline) or the saline vehicle (30 μL) 30 min prior to IP injection of LPS (3 mg/kg in 50 μL of saline) or saline (50 μL). Two hours after injection of LPS, z-VD(OMe)-OPh (1 μmol in 20 μL of DMSO) or the vehicle, DMSO (20 μL), was injected IP. […]"}, "[9]": {"experiment": "Selectivity assay for PCL-2: response to H2O2", "format": "biochemical", "details": "H2O2 100 μM and catalase 0.4 mg/mL", "procedure": "as §2\nVarious ROS (100 μM) were administered to PCL-2 or HCBT (5 μM) in Tris buffer (50 mM, pH 7.4) with or without 10 mM MgCl2 and 0.1 mM ZnCl2. […] After an additional 15 min incubation, 100 μL of a Tris buffer (50 mM, pH 7.4) containing luciferase (100 μg/mL), 10 mM MgCl2, 0.1 mM ZnCl2, and 2 mM ATP was added to 100 μL of the PCL-2 or HCBT solutions and the bioluminescent signal was detected."}}, "data": [{"compound": "N[C@H](CS)C(=O)O", "note": "[D-cysteine]", "values": [{"measurement": "permeability across the cell membrane compared to luciferin", "setting": "[1]", "result": "increased permeability"}, {"measurement": "cellular lifetime: signal as time between removal and addition of the complementary reagent increases", "setting": "[2]", "result": "still fully available for reaction with HCBT"}, {"measurement": "change in bioluminescent signal on incubation with caspase enzymes", "setting": "[3]; D-cysteine 5 μM with HCBT, caspases 8, 3, 9", "result": "no change in bioluminescent signal"}]}, {"compound": "O=C(O)[C@H]1CSC(c2nc3ccc(OCc4ccc(B(O)O)cc4)cc3s2)=N1", "note": "[PCL-1]", "values": [{"measurement": "Turn-on", "setting": "[4]; H2O2 0.037 μmol", "result": "1.5-fold"}, {"measurement": "Turn-on", "setting": "[4]; H2O2 0.15 μmol", "result": "2.0-fold"}, {"measurement": "Turn-on", "setting": "[4]; H2O2 0.6 μmol", "result": "2.7-fold"}, {"measurement": "detection limit for H2O2 in vivo", "setting": "[4]; IP, FVB-luc^+ mice, optimized imaging conditions for each probe", "result": 0.037, "unit": "µmol"}]}, {"compound": "CC(C)[C@H](NC(=O)c1ccc2ccccc2n1)C(=O)N[C@@H](CC(=O)O)C(=O)COc1c(F)cccc1F", "note": "[Q-VD-OPh]", "values": [{"measurement": "effect of caspase inhibitor on the response of IETDC to caspase 8", "setting": "[3]; Q-VD-OPh 10 μM", "result": "complete attenuation"}, {"measurement": "effect of a single inhibitor on the dual-analyte signal", "setting": "[5]", "result": "attenuated the increase in signal"}, {"measurement": "effect of both inhibitors together on the dual-analyte signal", "setting": "[5]", "result": "complete attenuation of signal"}, {"measurement": "interference with in situ luciferin formation from HCBT and D-cysteine", "setting": "[5]", "result": "did not interfere with in situ luciferin formation"}]}, {"compound": "COc1cc(C(C)=O)ccc1O", "note": "[apocynin]", "values": [{"measurement": "reduction in PCL-2 signal upon treatment", "setting": "[6]", "result": 55, "unit": "%"}, {"measurement": "effect on the luciferin signal from HCBT and D-cysteine in vivo", "setting": "[7]; apocynin 10 mg/kg or z-VD-OPh 1 μmol IP, HCBT and D-cysteine 0.01 μmol each", "result": "do not alter the luciferin signal"}]}, {"compound": "O=C1O[C@H]([C@@H](O)CO)C(O)=C1O", "note": "[ascorbic acid]", "values": [{"measurement": "decrease in dual-probe bioluminescent signal", "setting": "[8]", "result": 30, "unit": "%"}, {"measurement": "effect on the bioluminescent signal from HCBT and D-cysteine", "setting": "[7]; ascorbic acid 200 mg/kg IP 4.5 h before HCBT and D-cysteine 0.01 μmol each", "result": "did not impact the bioluminescent signal"}]}, {"compound": "catalase", "values": [{"measurement": "effect of catalase on the H2O2 turn-on signal of PCL-2", "setting": "[9]", "result": "attenuated"}, {"measurement": "effect of a single inhibitor on the dual-analyte signal", "setting": "[5]", "result": "attenuated the increase in signal"}, {"measurement": "effect of both inhibitors together on the dual-analyte signal", "setting": "[5]", "result": "complete attenuation of signal"}, {"measurement": "interference with in situ luciferin formation from HCBT and D-cysteine", "setting": "[5]", "result": "did not interfere with in situ luciferin formation"}]}]}
